Data as given in patent publication US20200237909A1, “METHODS OF TREATING OR PREVENTING BREAST CANCER METASTASES USING ANTIBODIES TO JAGGED1 AND CHEMOTHERAPEUTIC AGENTS” (The Trustees of Princeton University, priority 2017, published 2020).
Where two headings read alike, the source gives them in different places.

Experiments:
[1] = tested on: Notch downstream genes (human HES2, HEY1, HEY2); test: Notch downstream gene expression in tumor cells co-cultured with MSC after chemotherapy; type: cell-based; conditions: co-culture tumor cells after chemotherapy
MSCs = test: Stress inducers/inhibitors: Jagged1 expression and ROS production in MSCs; type: cell-based, mouse
Description: Next, which signaling pathway is responsible for Jagged1 induction after chemotherapy in osteoblast lineage cells was investigated. Chemotherapy generates many stress responses in cells, including endoplasmic reticulum stress (ER stress), and oxidative stress. Some of the stress conditions have been associated with the regulation of Jagged1 expression (Paul et al., 2014). Several treatments were used to mimic or inhibit these stress responses and then Jagged1 mRNA and protein levels were analyzed within the cells.
293T, H29-Clone #7, MC3T3-E1 Clone #4(denoted as MC3T3 for abbreviation thereafter), MCF7TR, mouse mesenchymal stromal cell (MSC, isolated from BALB/c), 4T1.2, SCP28, SCP28-Vector and -Jagged1 cells, SCP28, RAW264.7, and SUM1315-M1B1 cells were cultured according to American Type Culture Collection instructions and the inventors' previous studies (Ell et al., 2013; Ren et al., 2008; Sethi et al., 2011; Zheng et al., 2014). MSC cells were derived previously and were cultured in DMEM supplemented with 10% FBS, 30 ng/ml bFGF, 100 U/ml penicillin, and 100 μg/ml streptomycin (Ren et al., 2008). All plasmids were transfected into different cell lines using Lipofectamine 2000 following the manufacturer's manual (Life Technologies, CA, USA). To generate stable cell lines, a pLEX-MCS based lentivirus vector or a pMSCV-hygro based retrovirus vector was used in our study. Lentiviruses were packaged in HEK293T cells while retroviruses were packaged by using H29 cell line. Conditional media from these packaging cells containing viruses were collected 2 days and 3 days after transfection. Recipient cell lines were exposed to conditional media containing viruses supplemented with 2 μg/mL Polybrene for 48 h. Infected cells were selected with puromycin or hygromycin to generate stable expressing cell lines. 293T and H29clone #7 are cell lines from female humans. All other cancer cell lines are breast cancer cell lines from either female human or mouse.

[2] = In vivo toxicity of 15D11 (body weight, GI histology, ALT/AST, CBC, T cells)
Description: (§1) To analyze liver toxicity, the activity of alanine aminotransferase (ALT) and aspartate aminotransferase (AST) in the sera of these mice after the respective drug treatments was measured.
(§2) For IgG or 15D11 antibody treatment, mice were i.p. injected at the dosing of 10 mg/kg, twice a week.

[3] = mouse, in vivo
Description: as §1, §2

CC(=O)O[C@@]12CO[C@@H]1C[C@H](O)[C@@]1(C)C(=O)[C@H](O)C3=C(C)[C@@H](OC(=O)[C@H](O)[C@@H](NC(=O)OC(C)(C)C)c4ccccc4)C[C@@](O)([C@@H](OC(=O)c4ccccc4)[C@H]21)C3(C)C [docetaxel]
Notch downstream genes HES2, HEY1, HEY2 [1]: significantly upregulated
ROS production in MSCs (MSCs): induced ROS production

OO [H2O2]
Jagged1 expression in MSCs (MSCs): induced a strong Jagged1 expression

CC(=O)N[C@@H](CS)C(=O)O [N-Acetyl Cysteine]
block of cisplatin and docetaxel induced ROS production (MSCs; MSCs): completely blocked
block of cisplatin-induced Jagged1 expression (MSCs; MSCs): completely blocked

Tunicamycin
Jagged1 expression in MSCs (MSCs): did not induce Jagged1 expression

O=S1(=O)N[C@@]2(CN1CC(F)(F)F)[C@@H]1CC[C@H]2Cc2ccc(/C=C/CN3CCC(C(F)(F)F)CC3)cc2C1 [GSI]
general toxicity based on body weight measurement ([2]; 15D11 10 mg/kg, twice a week): significant weight loss
GI track toxicity (H&E and Alcian blue staining) ([2]; mouse, in vivo): significant goblet cell metaplasia
liver toxicity: ALT and AST activity in sera ([2]; mouse, in vivo): no change

C[C@H]1CCC/C=C/[C@@H]2C[C@H](O)C[C@H]2[C@H](O)/C=C/C(=O)O1 [Brefeldin A (BFA), Brefeldin A]
Jagged1 expression in MSCs (MSCs): did not induce Jagged1 expression

ClC(Cl)(Cl)Cl [CCl4]
liver toxicity: ALT and AST activity in sera [3]: dramatic increase
